# Results from patent US12391946B2, “Use of a Janus kinase inhibitor and a telomerase inhibitor for the treatment of myeloproliferative neoplasms” (priority 2019, dated 2025).
# pIC50: −log10 of the molar value. Where two headings read alike, the source gives them in different places.
# Assays:
# Format in all cases: cell-based, human
# CB CD34+ cells = assay: In vitro treatment of CB CD34+ cells with various doses of Rux; settings: various doses of Rux (50-500 nM)
# Procedure: (§1) Treatment of MF and normal CD34^+ cells with doses of Rux and Imetelstat alone and in combination. […] For simultaneous combination treatment, CD34^+ cells were exposed to Rux and imetelstat for 3 days and were washed. Cells were then exposed to imetelstat again for additional 4 days or 11 days. For sequential combination treatment, CD34^+ cells were incubated in the presence of Rux alone for 3 days, followed by imetelstat alone for 7 or 14 days. For the three treatment strategies containing imetelstat, cells were dosed in total three times with imetelstat. Three days after Rux alone treatment and 7 or 14 days after each treatment with imetelstat, cells were enumerated and stained with CD34, a lineage cocktail, and CD15 mAbs and analyzed flow cytometrically. The absolute numbers of Lin^− CD34^+ (phenotypically defined HSC/HPC) and CD15^+CD34^− (myeloid) cells generated in the cultures were calculated by multiplying the total viable cell numbers by the percentage of CD34^+Lin^− and CD15^+CD34^− cells. In addition, parallel cultures to which MM or vehicle alone was added were performed.
# MF splenic CD34+ cells [1] = assay: In vitro treatment of MF splenic CD34+ cells with various doses of Rux; settings: for pIC50: Homo sapiens, concentration of Rux achieving 50% inhibition
# Procedure: as §1
# MF splenic CD34+ cells [2] = assay: In vitro treatment of MF splenic CD34+ cells with Rux and imetelstat alone and in combination (flow cytometry, HPC assays); settings: Rux alone 50 nM 3 days
# Procedure: as §1, with “In addition, parallel cultures to which MM or vehicle alone was added were performed.” left out
# HPC assays. A fraction of cells harvested from the above cultures were also analyzed in methylcellulose to which a cytokine cocktail was added according to the manufacturer's instructions (StemCell Technologies). […] Individual CFU-GM colonies (20-38 colonies/treatment group/patient) were plucked and analyzed for the presence of JAK2V617F using a nested allele-specific PCR. […]
compound,measurement,setting,value
"N#CC[C@H](C1CCCC1)n1cc(-c2ncnc3[nH]ccc23)cn1 [Rux, (3R)-3-Cyclopentyl-3-[4-(7H-pyrrolo[2,3-d]pyrimidin-4-yl)pyrazol-1-yl]propanenitrile]",number of CB CD34+ cells,CB CD34+ cells,decreased only to a limited degree
same,pIC50,"MF splenic CD34+ cells [1]; CD34+ cell, read-out: 50% inhibition of MF CD34+ cell proliferation",6.82
same,pIC50,"MF splenic CD34+ cells [1]; CFU-GM, MF CD34+ cells, read-out: 50% inhibition of CFU-GM formation",6.82
same,absolute number of MF splenic CD34+ cells,MF splenic CD34+ cells [1]; various doses of Rux (50-500 nM),decreased in a dose dependent fashion
same,number of mature myeloid cells generated in cultures of splenic MF CD34+ cells,MF splenic CD34+ cells [2]; P=0.001,reduced
same,numbers of assayable HPCs (CFU-GM+BFU-E+CFU-GEMM) generated in cultures of splenic MF CD34+ cells,MF splenic CD34+ cells [2]; P=9.69E-06,reduced
